# How the values were obtained:
# Format in all cases: biochemical
# [1] = target: T1, JAK1 (Homo sapiens, UniProt P23458); assay: JAK1 inhibition (Table 4); conditions: read-out: JAK1 Ki
# T1 construct: made in house; host or cells: SF9 insect cells (baculovirus)
# [2] = target: T2, JAK2 (Homo sapiens, UniProt O60674); assay: JAK2 inhibition (Table 4); conditions: read-out: JAK2 Ki
# T2 construct: made in house; host or cells: SF9 insect cells (baculovirus)
# [3] = target: T3, JAK3 (Homo sapiens, UniProt P52333); assay: JAK3 inhibition (Table 4); conditions: read-out: JAK3 Ki
# T3 construct: made in house; host or cells: SF9 insect cells (baculovirus)
# [4] = target: T4, TYK2 (Homo sapiens, UniProt P29597); assay: TYK2 inhibition (Table 4)
# T4 construct: made in house; host or cells: SF9 insect cells (baculovirus)
# T4 sequence (P29597 873-1187): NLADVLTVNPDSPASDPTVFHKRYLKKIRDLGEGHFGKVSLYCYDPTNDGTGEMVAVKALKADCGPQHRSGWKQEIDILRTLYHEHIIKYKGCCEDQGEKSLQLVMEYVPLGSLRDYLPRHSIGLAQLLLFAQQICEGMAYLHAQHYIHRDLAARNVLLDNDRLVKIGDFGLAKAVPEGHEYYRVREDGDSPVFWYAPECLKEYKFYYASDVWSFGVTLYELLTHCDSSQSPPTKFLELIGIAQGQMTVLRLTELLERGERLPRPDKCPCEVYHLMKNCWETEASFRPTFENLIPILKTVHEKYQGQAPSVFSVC
# T2 sequence (O60674 812-1132): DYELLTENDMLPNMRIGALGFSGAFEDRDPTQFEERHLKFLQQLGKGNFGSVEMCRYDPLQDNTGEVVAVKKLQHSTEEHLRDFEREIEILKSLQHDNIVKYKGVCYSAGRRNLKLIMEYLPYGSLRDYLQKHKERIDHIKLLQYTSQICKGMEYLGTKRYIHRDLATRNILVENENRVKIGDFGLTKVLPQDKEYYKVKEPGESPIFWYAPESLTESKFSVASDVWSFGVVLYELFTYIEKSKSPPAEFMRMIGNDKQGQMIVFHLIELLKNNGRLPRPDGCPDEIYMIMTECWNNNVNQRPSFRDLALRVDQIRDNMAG
# T3 sequence (P52333 783-1124): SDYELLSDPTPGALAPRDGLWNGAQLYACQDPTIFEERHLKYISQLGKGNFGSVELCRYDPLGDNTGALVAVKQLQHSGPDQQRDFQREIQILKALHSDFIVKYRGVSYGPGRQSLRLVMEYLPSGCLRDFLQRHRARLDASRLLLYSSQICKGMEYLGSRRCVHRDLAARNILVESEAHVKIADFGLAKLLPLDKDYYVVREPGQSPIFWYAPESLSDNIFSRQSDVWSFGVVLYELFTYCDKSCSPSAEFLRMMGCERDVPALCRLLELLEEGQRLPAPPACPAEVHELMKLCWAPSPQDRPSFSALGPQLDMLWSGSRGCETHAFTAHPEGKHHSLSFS
# T1 sequence (P23458 852-1154): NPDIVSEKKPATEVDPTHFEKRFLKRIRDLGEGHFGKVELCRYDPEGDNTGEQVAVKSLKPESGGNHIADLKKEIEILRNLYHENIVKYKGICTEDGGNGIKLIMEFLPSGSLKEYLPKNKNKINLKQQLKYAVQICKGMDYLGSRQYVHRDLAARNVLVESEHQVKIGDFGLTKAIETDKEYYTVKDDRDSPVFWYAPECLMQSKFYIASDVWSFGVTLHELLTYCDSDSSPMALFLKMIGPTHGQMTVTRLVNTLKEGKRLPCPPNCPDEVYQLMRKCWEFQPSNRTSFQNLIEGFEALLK
Compound,Ki [1],Ki [2],Ki [3],Ki [4]
"FC(F)(F)c1cccc(CN2CCC(n3cnc4cnc5[nH]ccc5c43)CC2)n1 [Example 314, 1-[1-(6Trifluoromethyl-pyridin-2-ylmethyl)-piperidin-4-yl]-1,6-dihydro-1,3,5,6-tetraaza-as-indacene]",4.46 nM,7.44 nM,36.2 nM,124 nM
"N#CCC(=O)N1CCC[C@@H](n2nnc3cnc4[nH]ccc4c32)C1 [Example 19, 3-Oxo-3-[(R)-3-(6H-1,2,3,5,6-pentaaza-as-indacen-1-yl)-piperidin-1-yl]propionitrile]",1.49 nM,3.72 nM,24.5 nM,20.3 nM
"C[C@@H](O)c1nc2cnc3[nH]ccc3c2n1[C@H]1CC[C@@H](N2CCC(F)(F)CC2)CC1 [Example 612, Cis (R)-1-{1-[4-(4,4-difluoro-piperidin-1-yl)-cyclohexyl]-1,6-dihydro-1,2,3,5,6-tetraaza-as-indacen-2-yl}-ethanol]",52.9 nM,455 nM,509 nM,224 nM
"CC(C(=O)N1CCC(n2cnc3cnc4[nH]ccc4c32)CC1)N(C)C (racemic) [Example 438, 2-Dimethylamino-1-[4-(6H-1,3,5,6-tetraaza-as-indacen-1-yl)-piperidin-1-yl]-propan-1-one]",23.3 nM,184 nM,2380 nM,823 nM
"COCC(=O)NC1CCCC(n2cnc3cnc4[nH]ccc4c32)C1 (single isomer, unassigned) [Example 480, 2-Methoxy-N-[3-(6H-1,3,5,6-tetraaza-as-indacen-1-yl)-cyclohexyl]-acetamide]",264 nM,179 nM,563 nM,1100 nM
"3-[6-benzenesulfonyl-2-((R)-1-hydroxy-ethyl]-6H-1,3,5,6-tetraaza-as-indecen-1-yl}-cyclohexanecarbonitrile [Example 742]",9.51 nM,66.2 nM,36.6 nM,11.1 nM
"N#CCCN1CCC(n2c(COC3CCCC3)nc3cnc4[nH]ccc4c32)CC1 [Example 844, 3-[4-(2-Cyclopentyloxymethyl-6H-1,3,5,6-tetraaza-as-indacen-1-yl)-piperidin-1-yl]-propionitrile]",97.1 nM,177 nM,169 nM,732 nM
"CC(C)C(=O)N1CC(c2nc3cnc4[nH]ccc4c3n2C2CCN(CCC#N)CC2)C1 [Example 389, 3-{4-[2-(1-Isobutyryl-azetidin-3-yl)-6H-1,3,5,6-tetraaza-as-indacen-1-yl]-piperidin-1-yl}-propionitrile]",11.1 nM,34.3 nM,48.3 nM,181 nM
"C[C@@H](O)c1nc2cnc3[nH]ccc3c2n1C1CCN(C2COC2)CC1 [Example 832, (R)-1-[1-(1-Oxetan-3-yl-piperidin-4-yl)-1,6-dihydro-1,3,5,6-tetraaza-as-indacen-2-yl]-ethanol]",55.5 nM,428 nM,516 nM,493 nM
"C[C@@H](O)c1nc2cnc3[nH]ccc3c2n1[C@H]1CCN(CCC#N)C1 [Example 893, 3-{(S)-3-[2-((R)-1-Hydroxy-ethyl)-6H-1,3,5,6-tetraaza-as-indacen-1-yl]-pyrrolidin-1-yl}-propionitrile]",4.9 nM,49.2 nM,60.7 nM,9.49 nM
"CC(O)c1nc2cnc3[nH]ccc3c2n1C1CCN(CCC(F)(F)F)CC1 (stereo not shown) [Example 759, 1-{1-[1-(3,3,3-Trifluoro-propyl)-piperidin-4-yl]-1,6-dihydro-1,3,5,6-tetraaza-as-indacen-2-yl}-ethanol]",7.13 nM,118 nM,37.2 nM,109 nM
"Cc1nc2cnc3[nH]ccc3c2n1C1CCN(CC(O)(C(F)(F)F)C(F)(F)F)CC1 [Example 354, 1,1,1,3,3,3-Hexafluoro-2-[4-(2-methyl-6H-1,3,5,6-tetraaza-as-indacen-1-yl)-piperidin-1-ylmethyl]-propan-2-ol]",2.5 nM,5.24 nM,120 nM,10.9 nM
"CS(=O)(=O)Cc1nc2cnc3[nH]ccc3c2n1C1CCN(CCC#N)CC1 [Example 491, 3-[4-(2-Methanesulfonylmethyl-6H-1,3,5,6-tetraaza-as-indacen-1-yl)-piperidin-1-yl]-propionitrile]",9.7 nM,34 nM,23.6 nM,95.8 nM
"Cc1nc2cnc3[nH]ccc3c2n1[C@H]1CC[C@H](NC(=O)OCC(F)F)CC1 [Example 607, Trans[4-(2-methyl-6H-1,2,3,5,6-tetraaza-as-indacen-1-yl)-cyclohexyl]-carbamic acid 2,2-difluoro-ethyl ester]",0.6 nM,4.46 nM,11.2 nM,23.1 nM
"OCc1nc2cnc3[nH]ccc3c2n1C1CCN(Cc2cccnc2)CC1 [Example 278, [1-(1-Pyridin-3-ylmethyl-piperidin-4-yl)-1,6-dihydro-1,3,5,6-tetraaza-as-indacen-2-yl]-methanol]",1.52 nM,5.19 nM,6.41 nM,54.4 nM
"Cc1nc2ncccn2c1CN1CCC(n2c([C@@H](C)O)nc3cnc4[nH]ccc4c32)CC1 [Example 901, (R)-1-{1-[1-(2-Methyl-imidazo[1,2-a]pyrimidin-3-ylmethyl)-piperidin-4-yl]-1,6-dihydro-1,3,5,6-tetraaza-as-indacen-2-yl}-ethanol]",25 nM,139 nM,72.5 nM,223 nM
"c1cncc(Cc2nc3cnc4[nH]ccc4c3n2C2CCOCC2)c1 [Example 469, 2-Pyridin-3-ylmethyl-1-(tetrahydro-pyran-4-yl)-1,6-dihydro-1,3,5,6-tetraaza-as-indacene]",215 nM,1450 nM,475 nM,1770 nM
"Cc1nn(C)cc1S(=O)(=O)N1CCC(n2cnc3cnc4[nH]ccc4c32)CC1 [Example 448, 1-[1-(1,3-Dimethyl-1H-pyrazole-4-sulfonyl)-piperidin-4-yl]-1,6-dihydro-1,3,5,6-tetraaza-as-indacene]",34.4 nM,35.7 nM,873 nM,268 nM
"CC(C)(C)OC(=O)N1CCC[C@H](CN[C@H]2CC[C@H](n3cnc4cnc5[nH]ccc5c43)CC2)C1 [Example 565, trans (R)-3-{[4-(6H-1,3,5,6-Tetraaza-as-indacen-1-yl)-cyclohexylamino]-methyl}-piperidine-1-carboxylic acid tert-butyl ester]",90.8 nM,397 nM,1050 nM,1950 nM
O=C(CN1CCC(n2cnc3cnc4[nH]ccc4c32)CC1)c1ccccc1 [Example 74],1.25 nM,2.98 nM,31.9 nM,14.2 nM
"C[C@@H](O)c1nc2cnc3[nH]ccc3c2n1C1CCCC1 [Example 867, (R)-1-(1-Cyclopentyl-1,6-dihydro-1,3,5,6-tetraaza-as-indacen-2-yl)-ethanol]",3.58 nM,96.5 nM,119 nM,26.6 nM
"c1cc2c(ncc3ncn(C4CCN(Cc5cncs5)CC4)c32)[nH]1 [Example 104, 1-(1-Thiazol-5-ylmethyl-piperidin-4-yl)-1,6-dihydro-1,3,5,6-tetraaza-as-indacene]",0.9 nM,1.69 nM,11.5 nM,20.9 nM
"c1cc2c(ncc3ncn(CC4CCNC4)c32)[nH]1 (racemic) [Example 490, 1-Pyrrolidin-3-ylmethyl-1,6-dihydro-1,3,5,6-tetraaza-as-indacene]",391 nM,1110 nM,1870 nM,3430 nM
"NC(=O)Cc1nc2cnc3[nH]ccc3c2n1C1CCN(S(=O)(=O)C2CC2)CC1 [Example 382, 2-[1-(1-Cyclopropanesulfonyl-piperidin-4-yl)-1,6-dihydro-1,3,5,6-tetraaza-as-indacen-2-yl]-acetamide]",134 nM,589 nM,538 nM,733 nM
"Cc1nc2cnc3[nH]ccc3c2n1[C@H]1CCC[C@](C)(O)C1 [Example 886, (1S,3S)-1-Methyl-3-(2-methyl-6H-1,3,5,6-tetraaza-as-indacen-1-yl)-cyclohexanol]",10.3 nM,16.7 nM,41.7 nM,52.8 nM
"OCc1nc2cnc3[nH]ccc3c2n1C1CCN(Cc2ccccc2)CC1 [Example 22, [1-(1-Benzyl-piperidin-4-yl)-1,6-dihydro-1,2,3,5,6-tetraaza-as-indacen-2-yl]methanol]",1.73 nM,6.44 nM,10.8 nM,69.9 nM
"CC(C)(C)OC(=O)NC1CCCC(n2cnc3cnc4[nH]ccc4c32)C1 (single isomer, unassigned) [Example 474, [3-(6H-1,3,5,6-Tetraaza-as-indacen-1-yl)-cyclohexyl]-carbamic acid tert-butyl ester]",2.07 nM,4.4 nM,19.6 nM,47.1 nM
"O=C([C@H]1CCCN1)N1CCC(n2cnc3cnc4[nH]ccc4c32)CC1 [Example 248, (R)-Pyrrolidin-2-yl-[4-(6H-1,3,5,6-tetraaza-as-indacen-1-yl)-piperidin-1-yl]-methanone]",216 nM,342 nM,1160 nM,3190 nM
